In ChEMBL document CHEMBL3804759, “Pharmacological Targeting of AMP-Activated Protein Kinase and Opportunities for Computer-Aided Drug Design” (J Med Chem, 2016):

What was measured:
HEK293 = assay: Selectivity ratio of FLAG-tagged wild type AMPK beta1 (unknown origin) expressed in HEK293 cells over FLAG-tagged wild type AMPK beta2 (unknown origin) expressed in HEK293 cells; type: cell-based; settings: Homo sapiens
AMPK alpha1/beta2/gamma1 = AMPK alpha1/beta2/gamma1 (Homo sapiens, UniProt O43741+P54619+Q13131); assay: Binding affinity to human recombinant N-terminal AVI-tagged phosphorylated AMPK alpha1beta2gamma1 expressed in Escherichia coli BL21 cells after 1 to 10 mins by biolayer interferometry
AMPK alpha1/beta2/gamma1, sequence (O43741 whole entry): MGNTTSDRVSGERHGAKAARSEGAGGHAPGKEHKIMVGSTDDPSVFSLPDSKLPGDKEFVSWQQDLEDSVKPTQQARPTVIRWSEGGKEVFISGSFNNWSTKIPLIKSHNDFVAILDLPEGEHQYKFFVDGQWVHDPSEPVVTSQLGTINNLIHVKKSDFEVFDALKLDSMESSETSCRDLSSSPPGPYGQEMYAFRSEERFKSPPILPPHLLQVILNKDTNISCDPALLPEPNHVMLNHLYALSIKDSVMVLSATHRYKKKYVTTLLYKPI
AMPK alpha1/beta2/gamma1, sequence (P54619 whole entry): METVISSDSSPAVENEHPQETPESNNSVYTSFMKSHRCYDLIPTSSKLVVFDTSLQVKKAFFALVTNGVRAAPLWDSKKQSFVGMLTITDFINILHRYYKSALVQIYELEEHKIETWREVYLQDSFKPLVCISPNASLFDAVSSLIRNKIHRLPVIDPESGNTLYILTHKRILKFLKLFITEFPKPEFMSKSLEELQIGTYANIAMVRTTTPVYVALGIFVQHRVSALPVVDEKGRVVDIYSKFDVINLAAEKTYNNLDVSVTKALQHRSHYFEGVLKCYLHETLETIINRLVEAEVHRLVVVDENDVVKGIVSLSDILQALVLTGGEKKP
AMPK alpha1/beta2/gamma1, sequence (Q13131 whole entry): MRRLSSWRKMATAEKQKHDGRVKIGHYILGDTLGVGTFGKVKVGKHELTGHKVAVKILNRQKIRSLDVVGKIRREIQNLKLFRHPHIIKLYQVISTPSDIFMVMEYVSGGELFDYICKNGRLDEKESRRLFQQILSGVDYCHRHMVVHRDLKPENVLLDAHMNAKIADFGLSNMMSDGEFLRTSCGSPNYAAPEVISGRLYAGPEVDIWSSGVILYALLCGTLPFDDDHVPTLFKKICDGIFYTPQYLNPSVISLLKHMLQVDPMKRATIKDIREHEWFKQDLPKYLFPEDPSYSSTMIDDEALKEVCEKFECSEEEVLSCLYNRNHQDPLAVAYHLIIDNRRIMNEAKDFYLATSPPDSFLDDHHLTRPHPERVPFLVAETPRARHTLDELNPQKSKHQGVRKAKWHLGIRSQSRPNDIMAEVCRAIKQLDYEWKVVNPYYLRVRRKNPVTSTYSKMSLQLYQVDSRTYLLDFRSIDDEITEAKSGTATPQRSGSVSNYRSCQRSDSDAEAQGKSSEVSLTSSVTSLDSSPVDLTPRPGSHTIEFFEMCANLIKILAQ

[1] = target: AMP-activated protein kinase (AMPK) alpha-1/beta-1/gamma-1 (Homo sapiens, UniProt P54619+Q13131+Q9Y478); assay: Binding affinity to human recombinant N-terminal AVI-tagged phosphorylated AMPK alpha1beta1gamma1 expressed in Escherichia coli BL21 cells after 1 to 10 mins by biolayer interferometry
AMP-activated protein kinase (AMPK) alpha-1/beta-1/gamma-1, sequence (P54619 whole entry): as the sequence (P54619 whole entry) above
AMP-activated protein kinase (AMPK) alpha-1/beta-1/gamma-1, sequence (Q9Y478 whole entry): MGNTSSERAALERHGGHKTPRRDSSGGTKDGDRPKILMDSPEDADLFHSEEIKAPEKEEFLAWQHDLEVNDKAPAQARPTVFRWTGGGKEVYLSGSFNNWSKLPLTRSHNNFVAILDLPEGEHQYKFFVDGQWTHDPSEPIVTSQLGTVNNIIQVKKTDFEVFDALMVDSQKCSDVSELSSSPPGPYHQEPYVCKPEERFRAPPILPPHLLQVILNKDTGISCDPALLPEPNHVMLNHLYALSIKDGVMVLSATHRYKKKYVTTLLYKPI
AMP-activated protein kinase (AMPK) alpha-1/beta-1/gamma-1, sequence (Q13131 whole entry): as the sequence (Q13131 whole entry) above

Kd (AMPK alpha1/beta2/gamma1): 14.5 µM
Kd [1]: 510 nM
Structure (SMILES): N#Cc1c(O)c2c(-c3ccc(-c4ccccc4O)cc3)csc2[nH]c1=O
Selectivity ratio (HEK293): 30
